Results published in patent US20120214862A1, “MODULATION OF FACTOR 7 EXPRESSION” (ISIS Pharmaceuticals, Inc., priority 2009, published 2012).
In the oligonucleotide strings, read from the 5' end, every base follows the letter of its sugar. An asterisk marks phosphorothioate; unmarked linkages are phosphodiester. Other units and linkages are bracketed, terminal groups are in braces. A string of capitals states the bases alone. e = 2'-O-(2-methoxyethyl) (MOE); [5mC] = 5-methylcytosine; d = 2'-deoxy (DNA)

Experiments:
[1] = test system: human Factor 7 mRNA; test: Dose-dependent antisense inhibition of human Factor 7 in HepB3 cells, transfection with electroporation; type: cell-based
In short: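 HepB3 cells, 20,000/well, electroporated with gapmers at 3.125–100 μM; about 16 h treatment. Factor 7 mRNA by qRT-PCR with primer probe set RTS 2927, normalized to RIBOGREEN total RNA; percent inhibition versus untreated cells.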

[2] = test system: human Factor 7 mRNA; test: Antisense inhibition of human Factor 7 mRNA in HepB3 cells, lipofectin, 50 nM, real-time RT-PCR; type: cell-based; details: HepB3 cells; for % Inhibition (human Factor 7 mRNA): Example 1, 50 nM, ~24 h, relative to untreated control cells
In short: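 Cells plated at 4,000 per well were transfected and harvested after approximately 24 hours of treatment. Transcript levels, measured with primer probe set RTS 2927, were normalised to total RNA by RIBOGREEN®. Values are percent inhibition relative to untreated control cells.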

[3] = 3.125 μM, 16 hours (Example 7, Table 15)
[4] = 3.125 μM, 16 hours (Example 8, Table 16)
[5] = 6.25 μM, 16 hours (Example 7, Table 15)
[6] = 6.25 μM, 16 hours (Example 8, Table 16)
[7] = 12.5 μM, 16 hours (Example 7, Table 15)
[8] = 12.5 μM, 16 hours (Example 8, Table 16)
[9] = 25 μM, 16 hours (Example 7, Table 15)
[10] = 25 μM, 16 hours (Example 8, Table 16)
[11] = 50 μM, 16 hours (Example 7, Table 15)
[12] = 50 μM, 16 hours (Example 8, Table 16)
[13] = 100 μM, 16 hours (Example 7, Table 15)
[14] = 100 μM, 16 hours (Example 8, Table 16)
[15] = lipofectin, 50 nM antisense oligonucleotide, approximately 24 hours, primer probe set RTS 2927, relative to untreated control

Substance | percent inhibition of Factor 7 mRNA, relative to untreated control cells [1, 3] | percent inhibition of Factor 7 mRNA, relative to untreated control cells [1, 4] | percent inhibition of Factor 7 mRNA, relative to untreated control cells [1, 5] | percent inhibition of Factor 7 mRNA, relative to untreated control cells [1, 6] | percent inhibition of Factor 7 mRNA, relative to untreated control cells [1, 7] | percent inhibition of Factor 7 mRNA, relative to untreated control cells [1, 8] | percent inhibition of Factor 7 mRNA, relative to untreated control cells [1, 9] | percent inhibition of Factor 7 mRNA, relative to untreated control cells [1, 10] | percent inhibition of Factor 7 mRNA, relative to untreated control cells [1, 11] | percent inhibition of Factor 7 mRNA, relative to untreated control cells [1, 12] | percent inhibition of Factor 7 mRNA, relative to untreated control cells [1, 13] | percent inhibition of Factor 7 mRNA, relative to untreated control cells [1, 14] | % Inhibition (human Factor 7 mRNA) ([2]; lipofectin) | % Inhibition of human Factor 7 mRNA levels [2, 15] | % Inhibition of human Factor 7 mRNA levels ([2]; gapmers targeted to nucleobases 15188 to 15211 of SEQ ID NO: 1 (Table 13))
407939 (antisense eT*eG*e[5mC]*eA*eG*d[5mC]*d[5mC]*d[5mC]*dG*dG*d[5mC]*dA*d[5mC]*d[5mC]*d[5mC]*eA*eG*e[5mC]*eG*eA) [compound 407939] | 18% | 35% | 28% | 60% | 42% | 60% | 56% | 73% | 68% | 81% | 82% | 83% | 93% | 76% | 
407935 (antisense eA*eT*eG*e[5mC]*eA*dT*dG*dG*dT*dG*dA*dT*dG*d[5mC]*dT*eT*e[5mC]*eT*eG*eA) [compound 407935] | 37% | 63% | 47% | 79% | 67% | 84% | 73% | 90% | 80% | 90% | 87% | 91% | 94% | 72% | 79%
